The text below walks through data of PMC11997059, “Drugit: crowd-sourcing molecular design of non-peptidic VHL binders” (Nature Communications, 2025).

Data set [1] in a line: NMR detected solubility in NMR buffer. It counts as physicochemical. The settings on record: 500 µM target, 20 mM TRIS, 100 mM NaCl, pH 7.5 in D2O, 1H NMR vs maleic acid.
Data set [2] addresses VCB (VHL-ElonginC-ElonginB) complex (Homo sapiens, UniProt P40337). As to the kind of experiment: TR-FRET VCB—VHL tracer binding assay. On the technique in general: In TR-FRET formats the signal depends on donor and acceptor labels being close together.
Data set [3] deals with 13C-methyl labeled VCB complex (Homo sapiens, UniProt P40337). As to the kind of experiment: Protein-observed NMR titration / hit validation. The settings on record: for induced CSPs, Val and Leu region (binding region): 200 µM 13C labeled VCB, 500 µM VH298 or reference molecule 2, 1000 µM of 1.
Data set [4] in a line: Solubility testing (aqueous, LCUV). It counts as physicochemical. The following applies: aqueous buffer, kinetic from dmso stock, pH 6.8, final concentration 125 µg/mL. The procedure:
Dilution into a 1:1 mixture of acetonitrile and water was used as a reference. After 24 h, the incubations were filtrated, and the filtrate was analyzed by LCUV.

The nature of data set [5]: Bidirectional permeability in Caco2 cells. It counts as in vitro ADME. The settings on record: human, Caco-2, 1 or 10 µM, pH 7.4; for Papp A→B: apical to basolateral. The procedure:
Bidirectional permeability of test compounds across a Caco2 cell monolayer was measured as described previously. […] Cells were incubated with the compounds for up to 2 h, and samples from the opposite (receiver) compartment were taken at different time points.

Data set [6] relates to VHL. The following applies: read-out: TR-FRET IC50 (value marked *: FP assay), ref as reported previously; cited from earlier work.
Where [7] appears, read: read-out: TR-FRET IC50, Cy5-labeled VHL tracer, 10 nM His-tagged VCB, mean ± s.d., 1 as diastereomeric mixture.

SMILES strings stand for the structures. Converted amounts (≈) assume the structure as drawn. Where two headings read alike, the source gives them in different places. Some results are limits rather than exact numbers.

VCB (VHL-ElonginC-ElonginB) complex, sequence (P40337 54-213): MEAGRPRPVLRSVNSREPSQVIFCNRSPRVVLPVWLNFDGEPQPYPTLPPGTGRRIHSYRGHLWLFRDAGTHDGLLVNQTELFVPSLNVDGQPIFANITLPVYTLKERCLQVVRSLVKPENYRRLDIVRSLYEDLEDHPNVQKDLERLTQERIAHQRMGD
VCB (VHL-ElonginC-ElonginB) complex, sequence (Q15370 1-104 partner limits assumed): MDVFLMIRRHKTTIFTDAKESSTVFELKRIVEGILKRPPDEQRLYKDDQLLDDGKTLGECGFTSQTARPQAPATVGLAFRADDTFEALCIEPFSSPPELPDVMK
VCB (VHL-ElonginC-ElonginB) complex, sequence (Q15369 17-112 partner limits assumed): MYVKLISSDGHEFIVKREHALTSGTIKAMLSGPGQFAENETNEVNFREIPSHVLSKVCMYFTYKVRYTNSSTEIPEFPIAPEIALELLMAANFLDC
13C-methyl labeled VCB complex, sequence (P40337 54-213): as the sequence (P40337 54-213) above
13C-methyl labeled VCB complex, sequence (Q15370 1-104 partner limits assumed): as the sequence (Q15370 1-104 partner limits assumed) above
13C-methyl labeled VCB complex, sequence (Q15369 17-112 partner limits assumed): as the sequence (Q15369 17-112 partner limits assumed) above

For `Cc1ncsc1-c1ccc(CNC(=O)c2cc(C#N)cc(O)n2)cc1` [compound 42], in data set [1], the solubility (usually the dissolved amount per volume that the medium holds) was over 500.0 µM. For the same compound, the IC50 (commonly the point on the concentration scale where inhibition reaches its midpoint) in data set [2] (setting [7]) turned out to be 144 ± 10 µM.
Take `Cc1ncsc1-c1ccc(CNC(=O)c2cc(-c3ccccc3)c[nH]c2=O)cc1` [compound 35]: the solubility in data set [1] is given as under 10.0 µM.
The compound `O=S1(=O)Cc2ccccc2-c2[nH]nc(NCc3ccccc3)c21` [compound 28] returned a solubility in data set [1] of 360.0 µM (≈ 117 µg/mL). The IC50 in data set [2] (setting [7]) came out at 244 ± 22 µM.
In data set [1], `Cc1ncsc1-c1ccc(CC(=O)Nc2c[nH]c3ccccc23)cc1` [compound 36] registered a solubility of under 10.0 µM. Besides, the IC50 in data set [2] (setting [7]) was found to be 13 ± 4.5 µM.
`Cc1ncsc1-c1ccc(CNC(=O)c2cc(Br)cc(=O)[nH]2)cc1` [compound 41] returned a solubility in data set [1] of under 10.0 µM. Also, the IC50 in data set [2] (setting [7]) was over 100 µM.
For `O=S1(=O)Cc2ccccc2-c2[nH]nc(Br)c21` [compound 27], in data set [1], the solubility was over 500.0 µM. In data set [2] (setting [7]), the IC50 is over 500 µM.
On to `Cc1ncsc1-c1ccc(CNCc2cc(O)cc(N(C)c3ccccc3)c2)cc1` [compound 40], for which, in data set [1] (NMR buffer, aqueous buffer), the solubility was under 10 µM. In data set [2], the IC50 was 67.8 ± 5.1 µM.
Take `Cc1ncsc1-c1ccc(CNC(=O)[C@@H]2C[C@@H](O)CN2C(=O)[C@@H](NC(=O)C2(C#N)CC2)C(C)(C)C)cc1` [VH298, (2S,4R)-1-((S)-2-(1-Cyanocyclopropanecarboxamido)−3,3-dimethylbutanoyl)-4-hydroxy-N-(4-(4-methylthiazol-5-yl)benzyl)pyrrolidine-2-carboxamide]: the “induced CSPs, Val and Leu region (binding region)” value (“induced CSPs, Val and Leu region” below) in data set [3] is reported as “interact with the same binding region”.
On to `Cc1ncsc1-c1ccc(CN(Cc2cc(O)cc(Br)c2)C(=O)OC(C)(C)C)cc1` [compound 39], for which, in data set [1], the solubility was under 10.0 µM. Besides, the IC50 in data set [2] (setting [7]) was 70.7 ± 0.4 µM.
As to `NC(=O)c1cn[nH]c1-c1cccc2ccccc12` [compound 43], the solubility in data set [1] is over 500.0 µM. Also, the IC50 in data set [2] (setting [7]) was over 500 µM.
On to `Cc1ncsc1-c1ccc(CNC(=O)c2cc(Br)c[nH]c2=O)cc1` [compound 34], for which the solubility in data set [1] amounted to 20.0 µM (≈ 8.09 µg/mL). Besides, the IC50 in data set [2] (setting [7]) was over 100 µM.
The like results for `Cc1ncsc1-c1ccc(CNC(=O)[C@H]2C[C@H](O)Cc3ccccc32)cc1` [compound 18] were, in that order, over 500.0 µM and 166 ± 77 µM.
Compound `Cc1ncsc1-c1ccc(CNC(=O)C2CC(O)CN(c3ccccn3)C2=O)cc1` (centres unmarked) [compound 1] gave a solubility in data set [1] (NMR buffer, aqueous buffer) of over 500 µM. Moreover, the solubility at 24 h in data set [4] was over 98 µg/mL. For the same compound, the Papp A→B (as a rule, the apparent permeability from the apical to the basolateral side of a cell layer) in data set [5] is 23 ×10⁻⁶ cm/s. This compound registered an IC50 in data set [2] of 264 ± 30 µM. Also, in data set [3], the Kd – broadly, the concentration at which binding is half-saturated – came out at 182 ± 76 µM; the “induced CSPs, Val and Leu region” value is “interact with the same binding region”.
The compound `Cc1ncsc1-c1ccc(C(=O)Nc2cc(CO)cc3c2cnn3C)cc1` [compound 11] yielded a solubility in data set [1] of 180.0 µM (≈ 68.1 µg/mL). Further, the IC50 in data set [2] (setting [7]) was over 500 µM.
The like results for `Cc1ncsc1-c1ccc(-c2ccc3nccc(C(N)=O)c3c2)cc1` [compound 16] were, in that order, under 10.0 µM and 8.8 ± 0.8 µM.
The like results for `Cc1ncsc1-c1ccc(C(=O)Nc2cc(CO)cc3nn(C)cc23)cc1` [compound 12] were, in that order, 70.0 µM (≈ 26.5 µg/mL) and 255 ± 45 µM.
In the case of `Cc1ncsc1-c1ccc(CNC(=O)[C@@H]2C[C@@H](O)CN2C(=O)[C@@H](NC(=O)C2(F)CC2)C(C)(C)C)cc1` [Reference molecule 1], the solubility at 24 h in data set [4] was over 115 µg/mL. In data set [5], this compound displayed a Papp A→B of 2.9 ×10⁻⁶ cm/s. Also, in data set [6], the IC50 was […].
As for `Cc1ncsc1-c1ccc(CNC(=O)C2CC(O)CC(c3ccccc3)C2)cc1` (centres unmarked) [compound 23], the solubility in data set [1] is given as 110.0 µM (≈ 44.7 µg/mL). The IC50 in data set [2] (setting [7]) is over 100 µM.
As to `Cc1ncsc1-c1ccc(CNC(=O)Cc2ccc(-c3ccccc3)cc2CO)cc1` [compound 37], the solubility in data set [1] is on record as under 10.0 µM. The IC50 in data set [2] (setting [7]) was over 100 µM.
Compound `Cc1ncsc1-c1ccc(CNc2cc(CO)cc3nn(C)cc23)cc1` [compound 10] had a solubility in data set [1] (NMR buffer, aqueous buffer) of 240 µM (≈ 87.5 µg/mL). The IC50 in data set [2] came out at 167 ± 47 µM.
The compound `Cc1ncsc1-c1ccc(CNCc2cc(O)cc(Br)c2)cc1` [compound 38] gave a solubility in data set [1] of 80.0 µM (≈ 31.1 µg/mL). Besides, the IC50 in data set [2] (setting [7]) is 85.7 ± 16.2 µM.
`O=S1(=O)Cc2ccccc2-c2[nH]ncc21` [compound 26] came in with a solubility in data set [1] (NMR buffer, aqueous buffer) of over 500 µM. In addition, the IC50 in data set [2] is 265 ± 74 µM.
`Cc1cc(CC(=O)N2C[C@H](O)C[C@H]2C(=O)NCc2ccc(Cl)cc2)on1` [Reference molecule 2]: the solubility at 24 h in data set [4] was over 88 µg/mL. For the same compound, the efflux ratio (commonly the permeability from basolateral to apical divided by that in the opposite direction, in the common usage) in data set [5] stood at 4.8. Besides, the IC50 in data set [2] (setting [7]) amounted to 132 ± 38 µM. The “induced CSPs, Val and Leu region” value in data set [3] is reported as “interact with the same binding region”. Besides, the Kd in data set [3] (read-out: NMR KD, fit of dose-dependent chemical shifts of peaks #1 and #2, two independent titrations) turned out to be 29 ± 1 µM.
`Cc1ncsc1-c1ccc(CNC(=O)c2cc(O)cc(Br)c2)cc1` [compound 13] registered a solubility in data set [1] of 20.0 µM (≈ 8.07 µg/mL). Further, the IC50 in data set [2] (setting [7]) is over 100 µM.
`Cc1ncsc1-c1ccc(CNCc2cc(CO)nc(N(C)c3ccccc3)c2)cc1` [compound 6] returned a solubility in data set [1] of 70.0 µM (≈ 30.1 µg/mL). The IC50 in data set [2] (setting [7]) is over 500 µM.
In turn, `Cc1ncsc1-c1ccc(CNC(=O)c2c[nH]cc(-c3ccccc3)c2=O)cc1` [compound 5] gave a solubility in data set [1] of 20.0 µM (≈ 8.03 µg/mL). The IC50 in data set [2] (setting [7]) was over 100 µM.
On to `Cc1ncsc1-c1ccc(CNC(=O)[C@H]2C[C@H](O)C[C@@H](c3ccccc3)C2)cc1` [compound 25], for which the solubility in data set [1] (NMR buffer, aqueous buffer) was under 10 µM. The IC50 in data set [2] was over 100 µM.
In data set [1] (NMR buffer, aqueous buffer), `O=C(Cc1ccc2cc(O)ccc2c1)Nc1cc[nH]n1` [compound 22] displayed a solubility of 350 µM (≈ 93.6 µg/mL). In data set [2], the IC50 came to 315 ± 44 µM.
Take `O=[N+]([O-])c1ccc2c(c1)CS(=O)(=O)c1cn[nH]c1-2` [compound 29]: the IC50 in data set [2] (setting [7]) is 175 ± 18 µM.
In data set [1], `Cc1ncsc1-c1ccc(CNC(=O)c2cc(O)cc(-c3ccccc3)c2)cc1` [compound 14] had a solubility of under 10.0 µM. For the same compound, in data set [2] (setting [7]), the IC50 was determined as 15.6 ± 1.2 µM.
`Cc1ncsc1-c1ccc(CNC(=O)c2c[nH]cc(Br)c2=O)cc1` [compound 4] showed a solubility in data set [1] (NMR buffer, aqueous buffer) of 40 µM (≈ 16.2 µg/mL). In addition, the IC50 in data set [2] (setting [7]) was over 100 µM.
With `Cc1ncsc1-c1ccc(CNC(=O)[C@@H]2C[C@@H](O)Cc3ccccc32)cc1` [compound 17], the solubility in data set [1] came out at 400.0 µM (≈ 151 µg/mL). The IC50 in data set [2] (setting [7]) is 313 ± 135 µM.
In data set [1], `Cc1ncsc1-c1ccc(CNC(=O)c2cc(=O)cc(-c3ccccc3)[nH]2)cc1` [compound 3] had a solubility of 280.0 µM (≈ 112 µg/mL). The IC50 in data set [2] (setting [7]) was 13.8 ± 1.8 µM.
`Cc1ncsc1-c1ccc(CNC(=O)c2cc(=O)cc(Cl)[nH]2)cc1` [compound 2] displayed a solubility in data set [1] of 20.0 µM (≈ 7.2 µg/mL). Besides, the IC50 in data set [2] (setting [7]) is over 100 µM.
Compound `Cc1ncsc1-c1ccc(CN(Cc2cc(Cl)nc(CO)c2)C(=O)OC(C)(C)C)cc1` [compound 7] came in with a solubility in data set [1] of 60.0 µM (≈ 27.6 µg/mL). The IC50 in data set [2] (setting [7]) came to 106 ± 5.2 µM.
The like results for `CN(CCNCc1ccccc1)c1cnn[nH]1` [compound 8] were, in that order, 430.0 µM (≈ 99.5 µg/mL) and over 500 µM.
Consider `Cc1ncsc1-c1ccc(CNc2cc(CO)cc3c2cnn3C)cc1` [compound 9], for which, in data set [1] (NMR buffer, aqueous buffer), the solubility was determined as 110 µM (≈ 40.1 µg/mL). In data set [2], this compound showed an IC50 of over 100 µM.
For the compound `Cc1ncsc1-c1ccc(CNC(=O)C2CC(O)CN(c3ccccn3)C2)cc1` (centres unmarked) [compound 19], in data set [1], the solubility is given as 230.0 µM (≈ 94 µg/mL). Moreover, in data set [2] (setting [7]), the IC50 was over 100 µM.
In data set [1] (NMR buffer, aqueous buffer), `Cc1ncsc1-c1ccc(CNc2cc(C(C)C)c[nH]c2=O)cc1` [compound 33] returned a solubility of 50 µM (≈ 17 µg/mL). The compound further showed an IC50 in data set [2] of 71.7 ± 49.3 µM.
On to `Cc1ncsc1-c1ccc(CNC(=O)[C@@H]2C[C@@H](O)C[C@H](c3ccccc3)C2)cc1` [compound 24], for which the solubility in data set [1] (NMR buffer, aqueous buffer) is under 10 µM. Moreover, the IC50 in data set [2] is over 100 µM.
With `Cc1ncsc1-c1ccc(-c2ccc3cccc(C(N)=O)c3c2)cc1` [compound 15], in data set [1] (NMR buffer, aqueous buffer), the solubility was under 10 µM.
